“And” between values parts separate entries of the source, which are not always exact repeats. Identical values can stand only once.
Columns and labels:
Oryctolagus sp. = conditions: for LD50: acute, dermal; for NOAEL: reproduction developmental, oral
Rattus norvegicus [1] = conditions: for LD50 / LC50: acute
Rattus norvegicus [2] = conditions: Hershberger, duration: 10 days, oral, gavage, Wistar
[3] = subchronic, duration: 90 days, oral, diet, Sprague-Dawley
[4] = developmental, duration: 10 days, oral, gavage, Sprague-Dawley
[5] = reproduction developmental, duration: 10 days, oral, gavage, F, Sprague-Dawley
[6] = short-term, duration: 4 weeks, oral, diet, Sprague-Dawley
[7] = reproduction developmental, oral, gavage, Sprague-Dawley
[8] = subchronic, duration: 13 weeks, oral, gavage, Sprague-Dawley

SMILES: CC(C)CCCCCCCOP(=S)([S-])OCCCCCCCC(C)C.CC(C)CCCCCCCOP(=S)([S-])OCCCCCCCC(C)C.[Zn+2]
- LD50 (Oryctolagus sp.; New Zealand): > 8000 mg/kg

SMILES: CCCC[N+](CC)(CCCC)CCCCCC[N+](CC)(CCCC)CCCC.[OH-].[OH-]
- LD50 (Oryctolagus sp.; New Zealand): 22.4 mg/kg
- LD50 (Rattus norvegicus [1]; oral, gavage, Sprague-Dawley): 350 mg/kg

SMILES: CC(C)C(C)(N)C#N (stereo unspecified) [2-Amino-2,3-dimethylbutanenitrile]
- LD50 (Oryctolagus sp.; occlusive, New Zealand): 23 mg/kg
- LC50 (Rattus norvegicus [1]; inhalation, Sprague-Dawley): 422 mg/m3 and 335 mg/m3
- LD50 (Rattus norvegicus [1]; oral, gavage, Sprague-Dawley): 83 mg/kg
- NOAEL (Rattus norvegicus [1]; short-term, duration: 28 days, dermal, occlusive, Charles River (Sprague-Dawley derived)): 3 mg/kg-day

SMILES: CC(C#N)CCC#N (stereo unspecified) [2-Methylpentanedinitrile]
- LD50 (Oryctolagus sp.; New Zealand): 776 mg/kg
- LD50 (Rattus norvegicus [1]; oral, Sprague-Dawley): 205 mg/kg and ≥ 174 mg/kg and ≤ 243 mg/kg
- NOAEL (Rattus norvegicus [1]; short-term, duration: 4 weeks, inhalation, Crl:CD(SD) BR): 25 mg/m3

SMILES: CCCC(c1cc(C(C)(C)C)c(O)cc1C)c1cc(C(C)(C)C)c(O)cc1C [4,4'-Butane-1,1-diylbis(2-tert-butyl-5-methylphenol)]
- NOEL (Rattus norvegicus [2]; inactive + Negative + Negative + anti-androgenic + negative): 125 mg/kg-day
- NOEL (Rattus norvegicus [2]; inactive + Negative + Negative + anti-androgenic + negative / effects on thyroid at 125 (initial increase in T4 at 5)): 125 mg/kg-day
- LD50 (Oryctolagus sp.; New Zealand): > 7940 mg/kg
- LD50 (Rattus norvegicus [1]; oral, gavage, Sprague-Dawley): > 7940 mg/kg
- NOAEL (Rattus norvegicus [1]; reproduction developmental, duration: 90 days, oral, diet, M, Sprague-Dawley): 100 ppm
- LOAEL (Rattus norvegicus [1]; [3]): 48 mg/kg-day
- NOAEL (Rattus norvegicus [1]; [3]): 9.6 mg/kg-day

SMILES: CC(C)CC(C)Nc1ccc(Nc2ccccc2)cc1 (stereo unspecified) [6PPD]
- LD50 (Oryctolagus sp.; occlusive, New Zealand): > 7940 mg/kg
- NOAEL (Oryctolagus sp.; duration: 13 days, F, New Zealand): 30 mg/kg-day
- LD50 (Rattus norvegicus [1]; oral, Sprague-Dawley): > 5000 mg/kg
- LD50 (Rattus norvegicus [1]; oral, gavage, Sprague-Dawley): 3580 mg/kg
- NOAEL (Rattus norvegicus [1]; [4]): > 250 mg/kg-day
- NOAEL (Rattus norvegicus [1]; reproduction developmental, duration: 23 weeks, oral, diet, Sprague-Dawley, generation: F0): 100 ppm
- NOAEL (Rattus norvegicus [1]; reproduction developmental, duration: 23 weeks, oral, diet, Sprague-Dawley, generation: F1): 1000 ppm
- NOAEL (Rattus norvegicus [1]; reproduction developmental, duration: 23 weeks, oral, diet, Sprague-Dawley, generation: F2): 1000 ppm
- NOAEL (Rattus norvegicus [1]; [5]): 50 mg/kg-day
- NOAEL (Rattus norvegicus [1]; reproduction developmental, duration: 21 days, oral, gavage, Sprague-Dawley, generation: F0): > 1000 ppm
- NOAEL (Rattus norvegicus [1]; reproduction developmental, duration: 21 days, oral, gavage, Sprague-Dawley, generation: F1): > 1000 ppm
- LOAEL (Rattus norvegicus [1]; short-term, duration: 4 weeks, inhalation, particle, Sprague-Dawley): 50 mg/m3
- NOAEL (Rattus norvegicus [1]; [3]): 24 mg/kg-day

SMILES: O=C(Cl)c1ccccc1 [Benzoyl chloride]
- LD50 (Oryctolagus sp.): 790 mg/kg
- LD50 (Oryctolagus sp.; occlusive, New Zealand): > 2000 mg/kg
- LC50 (Rattus norvegicus [1]; inhalation): 1.87 µg/mL
- LC50 (Rattus norvegicus [1]; inhalation, Wistar): 1.45 µg/mL and > 1.98 µg/mL and > 2.34 µg/mL
- LD50 (Rattus norvegicus [1]; oral): 2460 mg/kg and 1900 mg/kg
- LD50 (Rattus norvegicus [1]; oral, Spartan): 2620 mg/kg
- LD50 (Rattus norvegicus [1]; oral, gavage, Wistar): 2530 mg/kg

SMILES: CCCCC(CC)COC(=O)c1c(Br)c(Br)c(Br)c(Br)c1C(=O)OCC(CC)CCCC (stereo unspecified) [Bis(2-ethylhexyl) tetrabromophthalate]
- LD50 (Oryctolagus sp.; New Zealand): > 3090 mg/kg
- LD50 (Rattus norvegicus [1]; oral, gavage, Crl:CD(SD)): > 5000 mg/kg
- LOAEL (Rattus norvegicus [1]; [6]): 20000 ppm
- NOAEL (Rattus norvegicus [1]; [6]): 2000 ppm

SMILES: O=S(=O)([O-])c1ccc(Nc2nc(Nc3ccc(/C=C/c4ccc(Nc5nc(Nc6ccc(S(=O)(=O)[O-])cc6)nc(N(CCO)CCO)n5)cc4S(=O)(=O)[O-])c(S(=O)(=O)[O-])c3)nc(N(CCO)CCO)n2)cc1.[Na+].[Na+].[Na+].[Na+] [C.I. Fluorescent Brightener 220]
- NOAEL (Oryctolagus sp.; duration: 21 days, gavage, F, New Zealand): 100 mg/kg-day
- NOAEL (Oryctolagus sp.; duration: 21 days, gavage, New Zealand, generation: F1): 300 mg/kg-day and 800 mg/kg-day
- LD50 (Rattus norvegicus [1]; oral, gavage): > 15000 mg/kg
- NOAEL (Rattus norvegicus [1]; chronic, duration: 104 weeks, oral, diet, F, Wistar): 780 mg/kg-day
- NOAEL (Rattus norvegicus [1]; chronic, duration: 104 weeks, oral, diet, M, Wistar): 780 mg/kg-day
- NOAEL (Rattus norvegicus [1]; reproduction developmental, duration: 9 months, oral, gavage, Sprague-Dawley, generation: F1): 1000 mg/kg-day
- NOAEL (Rattus norvegicus [1]; reproduction developmental, duration: 9 months, oral, gavage, Sprague-Dawley, generation: F2): 1000 mg/kg-day
- NOAEL (Rattus norvegicus [1]; reproduction developmental, duration: 13 days, oral, gavage, F, Sprague-Dawley): 1000 mg/kg-day
- NOAEL (Rattus norvegicus [1]; reproduction developmental, duration: 13 days, oral, gavage, Sprague-Dawley, generation: F1): 1000 mg/kg-day
- NOAEL (Rattus norvegicus [1]; reproduction developmental, oral, gavage, Sprague-Dawley, generation: F0): 1000 mg/kg-day
- NOAEL (Rattus norvegicus [1]; reproduction developmental, oral, gavage, Sprague-Dawley, generation: F1): 1000 mg/kg-day
- NOAEL (Rattus norvegicus [1]; subchronic, duration: 10 weeks, oral, gavage, F, Wistar): 500 mg/kg-day
- NOAEL (Rattus norvegicus [1]; subchronic, duration: 10 weeks, oral, gavage, M, Wistar): 500 mg/kg-day

SMILES: C=C1C2CCC(C2)C1(C)C (stereo unspecified) [Camphene]
- LD50 (Oryctolagus sp.; New Zealand): > 2500 mg/kg
- LD50 (Rattus norvegicus [1]; oral, Wistar): > 5000 mg/kg
- NOAEL (Rattus norvegicus [1]; [4]): 1000 mg/kg-day
- NOAEL (Rattus norvegicus [1]; [5]): 250 mg/kg-day
- NOAEL (Rattus norvegicus [1]; short-term, duration: 28 days, oral, gavage, F, Wistar): 250 mg/kg-day
- NOAEL (Rattus norvegicus [1]; short-term, duration: 28 days, oral, gavage, M, Wistar): 62.5 mg/kg-day
- LOAEL (Rattus norvegicus [1]; short-term, duration: 28 days, oral, gavage, Wistar): 1000 mg/kg-day

SMILES: OC1CCCCC1 [Cyclohexanol]
- LD50 (Oryctolagus sp.; New Zealand): ≥ 501 mg/kg and ≤ 794 mg/kg
- LC50 (Rattus norvegicus [1]; Inhalation, Sprague-Dawley): > 3.63 µg/mL
- LD50 (Rattus norvegicus [1]; oral, gavage, Carworth Wistar): 2060 mg/kg
- LD50 (Rattus norvegicus [1]; oral, gavage, Sprague-Dawley): 1550 mg/kg
- NOAEL (Rattus norvegicus [1]; developmental, inhalation, Sprague-Dawley): 614 mg/m3
- NOAEL (Rattus norvegicus [1]; reproduction developmental, duration: 10 weeks, inhalation, Sprague-Dawley, generation: F0): 614 mg/m3
- NOAEL (Rattus norvegicus [1]; reproduction developmental, duration: 10 weeks, inhalation, Sprague-Dawley, generation: F1): 614 mg/m3
- NOAEL (Rattus norvegicus [1]; reproduction developmental, duration: 13 weeks, inhalation, Sprague-Dawley): 614 mg/m3

SMILES: CCOP(=O)(CN(CCO)CCO)OCC [Diethyl (N,N-bis(2-hydroxyethyl)amino)methanephosphonate]
- LD50 (Oryctolagus sp.): > 2000 mg/kg
- LD50 (Oryctolagus sp.; Albino): > 2000 mg/kg
- LD50 (Rattus norvegicus [1]; oral, gavage, Sprague-Dawley): > 5000 mg/kg
- LOAEL (Rattus norvegicus [1]; [7]): > 750 mg/kg-day
- NOAEL (Rattus norvegicus [1]; [7]): 750 mg/kg-day
- LOAEL (Rattus norvegicus [1]; [8]): > 500 mg/kg-day
- NOAEL (Rattus norvegicus [1]; [8]): 500 mg/kg-day
